Common to all, as to format: functional
The subject of assay [1] is Aspergillus fumigatus. Description: Antifungal activity against Aspergillus fumigatus CGMCC3.7795 assessed as inhibition of fungal growth by NCCLS protocol based method.
Assay [2] concerns Candida tropicalis. The assay can be described thus: Antifungal activity against Candida tropicalis GIM2.183 assessed as inhibition of fungal growth by NCCLS protocol based method.
Assay [3] relates to Cryptococcus neoformans. The assay can be described thus: Antifungal activity against Cryptococcus neoformans GIM2.209 assessed as inhibition of fungal growth by NCCLS protocol based method.
Assay [4] deals with Candida albicans. Description: Antifungal activity against Candida albicans SC5314 assessed as inhibition of fungal growth by NCCLS protocol based method.
Assay [5] has as its system Candida albicans. The assay can be described thus: Antifungal activity against Candida albicans GIM2.194 assessed as inhibition of fungal growth by NCCLS protocol based method.
Assay [6] deals with Cryptococcus neoformans. Description: Antifungal activity against Cryptococcus neoformans CGMCC2.3161 assessed as inhibition of fungal growth by NCCLS protocol based method.
Assay [7] relates to Candida albicans. Description: Antifungal activity against Candida albicans CPCC400523 assessed as inhibition of fungal growth by NCCLS protocol based method.
In assay [8] the test system is Pichia kudriavzevii. Description: Antifungal activity against Candida krusei GIM2.1 assessed as inhibition of fungal growth by NCCLS protocol based method.
For assay [9], the system named is Candida parapsilosis. Description: Antifungal activity against Candida parapsilosis GIM2.190 assessed as inhibition of fungal growth by NCCLS protocol based method. The following applies: Lodderomyces parapsilosis.
Assay [10] has as its system Candida albicans. The assay can be described thus: Antifungal activity against fluconazole resistant Candida albicans CaR assessed as inhibition of fungal growth by NCCLS protocol based method.
In assay [11] the test system is Candida albicans. The assay can be described thus: Antifungal activity against fluconazole and itraconazole resistant Candida albicans 17# assessed as inhibition of fungal growth by NCCLS protocol based method.

From ChEMBL document CHEMBL4842346, “Improving the metabolic stability of antifungal compounds based on a scaffold hopping strategy: Design, synthesis, and structure-activity relationship studies of dihydrooxazole derivatives” (Eur J Med Chem, 2021) come the findings set out here.

The term MIC denotes the least concentration at which growth counts as inhibited.

≈ marks a conversion by molar mass, not a printed value.

For the compound `C[C@H]1OC(c2ccc(-c3ccccc3)cc2)=N[C@H]1Cn1ccnc1`, the MIC in assay [1] is > 64 µg/mL; in assay [2] it was 4 µg/mL (≈ 12.6 µM); in [3] it was > 64 µg/mL; in assay [4], > 64 µg/mL; in [5], > 64 µg/mL.
As to `CN(C)C(=O)C(Cn1ccnc1)NC(=O)c1ccc(-c2ccccc2)cc1` (stereo unspecified), the MIC in assay [6] is > 64 µg/mL; in assay [1] it was > 64 µg/mL; in assay [7] it was > 64 µg/mL; in assay [4], 4 µg/mL (≈ 11 µM).
For the compound `Fc1cc(F)cc(-c2ccc(C3=NC(Cn4cncn4)(c4ccccc4)CO3)cc2)c1` (stereo unspecified), the minimal inhibitory concentration (MIC) is > 64 µg/mL in [8]; > 64 µg/mL in assay [1]; > 64 µg/mL in assay [9]; > 16 µg/mL in [2]; > 16 µg/mL in [4]; > 16 µg/mL in [5].
On to `O=C(NC(Cn1ccnc1)C1COC1)c1ccc(-c2ccccc2)cc1` (stereo unspecified), for which the MIC is > 64 µg/mL in [6], > 64 µg/mL in assay [1], > 64 µg/mL in [7] and 8 µg/mL (≈ 23 µM) in assay [4].
In the case of `c1ccc(CC2(Cn3ccnc3)COC(c3ccc(-c4ccccc4)cc3)=N2)cc1` (stereo unspecified), the MIC in assay [1] was > 64 µg/mL; in assay [2] it was 0.5 µg/mL (≈ 1.27 µM); in assay [3] it was > 64 µg/mL; in assay [4], < 0.125 µg/mL; in [5] it was 0.5 µg/mL (≈ 1.27 µM).
In the case of `FC(F)(c1ccccc1)C1(Cn2ccnc2)COC(c2ccc(-c3ccccc3)cc2)=N1` (stereo unspecified), the MIC in assay [1] is > 64 µg/mL; in [2], < 0.125 µg/mL; in assay [3], > 64 µg/mL; in assay [4], < 0.125 µg/mL; in [5], > 64 µg/mL.
Consider `CC1(Cn2ccnc2)COC(c2ccc(-c3ccccc3)cc2)=N1` (stereo unspecified), for which the MIC in assay [1] is 0.5 µg/mL (≈ 1.58 µM); in assay [2], 4 µg/mL (≈ 12.6 µM); in [3], > 64 µg/mL; in assay [4], 2 µg/mL (≈ 6.3 µM); in assay [5] it was 8 µg/mL (≈ 25.2 µM).
On to `O=C(c1ccc(-c2ccccc2)cc1)N1CCC[C@H]1Cn1ccnc1`, for which the MIC is > 64 µg/mL in [6], 8 µg/mL (≈ 24.1 µM) in assay [1], 32 µg/mL (≈ 96.6 µM) in [7] and 16 µg/mL (≈ 48.3 µM) in [4].
For `Fc1ccccc1-c1ccc(C2=NC(Cn3cncn3)(c3cccc(Cl)c3)CO2)cc1` (stereo unspecified), the minimal inhibitory concentration (MIC) is > 64 µg/mL in assay [8]; > 64 µg/mL in assay [1]; > 64 µg/mL in assay [9]; > 16 µg/mL in [2]; 0.06 µg/mL (≈ 0.139 µM) in [4]; > 16 µg/mL in [5].
For `Fc1cccc(C2(Cn3cncn3)COC(c3ccc(-c4ccccc4F)cc3)=N2)c1` (stereo unspecified), the MIC is > 64 µg/mL in assay [10]; > 64 µg/mL in assay [8]; > 64 µg/mL in assay [1]; > 64 µg/mL in [9]; 0.25 µg/mL (≈ 0.6 µM) in assay [2]; > 64 µg/mL in assay [11]. In addition, the MIC in assay [4] and in [5] was 0.06 µg/mL (≈ 0.144 µM) throughout.
As to `Clc1ccccc1-c1ccc(C2=NC(Cn3cncn3)(c3ccccc3)CO2)cc1` (stereo unspecified), the MIC in [8] was > 64 µg/mL; in [1] it was > 64 µg/mL; in [9], > 64 µg/mL; in assay [2], > 16 µg/mL; in assay [4], > 16 µg/mL; in assay [5], > 16 µg/mL.
On to `Clc1ccc(-c2ccc(C3=NC(Cn4cncn4)(c4ccccc4)CO3)cc2)cc1` (stereo unspecified), for which the MIC is > 64 µg/mL in assay [8]; > 64 µg/mL in assay [1]; > 64 µg/mL in [9]; > 16 µg/mL in assay [2]; > 16 µg/mL in [4]; > 16 µg/mL in assay [5].
On to `Clc1cccc(-c2ccc(C3=NC(Cn4cncn4)(c4ccccc4)CO3)cc2)c1` (stereo unspecified), for which the MIC in assay [8] is > 64 µg/mL; in [1], > 64 µg/mL; in assay [9], > 64 µg/mL; in [2] it was > 16 µg/mL; in assay [4], > 16 µg/mL; in assay [5], > 16 µg/mL.
Take `Fc1cc(-c2ccccc2)ccc1C1=NC(Cn2cncn2)(c2ccccc2)CO1` (stereo unspecified): the MIC is > 64 µg/mL in assay [8]; > 64 µg/mL in [1]; 16 µg/mL (≈ 40.2 µM) in [9]; 0.06 µg/mL (≈ 0.151 µM) in assay [2]; < 0.03 µg/mL in assay [4]; 0.06 µg/mL (≈ 0.151 µM) in [5].
On to `CC(C)C1OC(c2ccc(-c3ccccc3)cc2)=NC1Cn1ccnc1` (stereo unspecified), for which the MIC in [1] was > 64 µg/mL; in assay [2], < 0.125 µg/mL; in [3] it was > 64 µg/mL; in assay [4] it was 0.5 µg/mL (≈ 1.45 µM); in [5], > 64 µg/mL.
In the case of `Fc1cc(C2=NC(Cn3cncn3)(c3ccccc3)CO2)ccc1-c1ccccc1` (stereo unspecified), the MIC is 0.5 µg/mL (≈ 1.25 µM) in assay [8]; > 64 µg/mL in assay [1]; 4 µg/mL (≈ 10 µM) in [9]; 0.06 µg/mL (≈ 0.151 µM) in assay [2]; < 0.03 µg/mL in [4]; < 0.03 µg/mL in assay [5].
Regarding `CCC(C)n1ncn(-c2ccc(N3CCN(c4ccc(OCC5COC(Cn6cncn6)(c6ccc(Cl)cc6Cl)O5)cc4)CC3)cc2)c1=O` (stereo unspecified) [ITRACONAZOLE], the minimal inhibitory concentration (MIC) in assay [6], in assay [8], in assay [1], in assay [9], in [7] and in [2] was < 0.125 µg/mL in each case. In addition, the MIC in assay [3] is < 0.125 µg/mL; in [4] it was < 0.03 µg/mL; in assay [5], < 0.125 µg/mL.
